molecular target: T1, PI3Kδ (Homo sapiens, UniProt O00329); assay: PI3Kδ Alphascreen assay; type: biochemical
T1 construct: Full length p110 subunits of PI3k α, β and δ, N-terminally labeled with polyHis tag; polyHis (N); made in house; host or cells: Sf9 insect cells (baculovirus)
T1 sequence (O00329 whole entry): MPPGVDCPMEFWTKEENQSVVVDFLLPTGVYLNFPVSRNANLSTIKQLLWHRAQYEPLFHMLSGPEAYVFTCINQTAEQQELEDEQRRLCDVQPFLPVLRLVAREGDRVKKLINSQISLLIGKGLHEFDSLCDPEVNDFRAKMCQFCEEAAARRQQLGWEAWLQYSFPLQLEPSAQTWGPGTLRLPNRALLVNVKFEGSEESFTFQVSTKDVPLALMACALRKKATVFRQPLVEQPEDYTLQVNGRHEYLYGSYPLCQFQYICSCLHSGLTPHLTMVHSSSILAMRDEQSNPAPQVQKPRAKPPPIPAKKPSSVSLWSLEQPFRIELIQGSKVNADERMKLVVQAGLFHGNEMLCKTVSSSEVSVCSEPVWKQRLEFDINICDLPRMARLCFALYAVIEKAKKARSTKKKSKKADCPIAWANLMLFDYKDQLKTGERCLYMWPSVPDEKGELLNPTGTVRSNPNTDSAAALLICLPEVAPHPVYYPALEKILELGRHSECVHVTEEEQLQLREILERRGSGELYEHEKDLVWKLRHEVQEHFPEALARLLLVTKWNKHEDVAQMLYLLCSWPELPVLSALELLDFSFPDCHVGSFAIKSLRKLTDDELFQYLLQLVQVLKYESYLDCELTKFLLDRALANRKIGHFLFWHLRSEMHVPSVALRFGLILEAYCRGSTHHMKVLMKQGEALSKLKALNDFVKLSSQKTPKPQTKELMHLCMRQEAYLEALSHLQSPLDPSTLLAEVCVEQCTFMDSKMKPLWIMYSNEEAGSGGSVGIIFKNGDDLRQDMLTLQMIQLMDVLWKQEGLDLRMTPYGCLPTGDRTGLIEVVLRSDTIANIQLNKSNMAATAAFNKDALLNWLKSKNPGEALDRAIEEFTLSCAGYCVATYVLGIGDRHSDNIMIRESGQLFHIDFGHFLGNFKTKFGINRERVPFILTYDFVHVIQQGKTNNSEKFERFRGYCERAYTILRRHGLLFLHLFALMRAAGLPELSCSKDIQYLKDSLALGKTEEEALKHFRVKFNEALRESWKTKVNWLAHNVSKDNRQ
T1 sequence (P27986 whole entry partner): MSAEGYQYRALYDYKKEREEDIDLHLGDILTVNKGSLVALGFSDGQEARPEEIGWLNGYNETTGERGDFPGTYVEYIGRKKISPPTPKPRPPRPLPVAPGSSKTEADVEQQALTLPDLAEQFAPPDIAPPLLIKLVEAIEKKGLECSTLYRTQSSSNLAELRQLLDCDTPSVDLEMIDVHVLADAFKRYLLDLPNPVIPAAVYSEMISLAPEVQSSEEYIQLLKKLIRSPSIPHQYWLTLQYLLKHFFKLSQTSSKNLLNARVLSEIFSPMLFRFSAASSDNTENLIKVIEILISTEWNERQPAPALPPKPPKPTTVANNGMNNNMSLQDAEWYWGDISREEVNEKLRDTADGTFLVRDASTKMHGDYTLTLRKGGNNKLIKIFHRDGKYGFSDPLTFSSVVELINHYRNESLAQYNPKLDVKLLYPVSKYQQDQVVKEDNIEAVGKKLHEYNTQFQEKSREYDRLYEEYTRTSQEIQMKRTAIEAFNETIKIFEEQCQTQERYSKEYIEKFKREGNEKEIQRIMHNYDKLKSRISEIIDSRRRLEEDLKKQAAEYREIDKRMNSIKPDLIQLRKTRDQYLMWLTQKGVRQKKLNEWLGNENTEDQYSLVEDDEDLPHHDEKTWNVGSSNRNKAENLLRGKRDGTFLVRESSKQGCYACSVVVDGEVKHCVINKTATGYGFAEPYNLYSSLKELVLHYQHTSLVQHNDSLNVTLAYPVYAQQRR

Ki [nM] | SMILES
315 | Cc1c(-c2ccnc(N3CCCC3)c2)nc2cc(F)cc(F)c2c1Nc1cncc(N2CCOCC2)c1 [5,7-difluoro-3-methyl-N-(5-(4-morpholinyl)-3-pyridinyl)-2-(2-(1-pyrrolidinyl)-4-pyridinyl)-4-quinolinamine]
66.4 | Cc1c(N2CCN(S(=O)(=O)c3ccccc3F)CC2)nc2cc(F)cc(F)c2c1Nc1cncc(N2CCOCC2)c1 [5,7-difluoro-2-(4-((2-fluorophenyl)sulfonyl)-1-piperazinyl)-3-methyl-N-(5-(4-morpholinyl)-3-pyridinyl)-4-quinolinamine]
13.2 | CCN1CCN(c2nc3cc(F)cc(F)c3c(Nc3cncc(N4CCOCC4)c3)c2C)CC1=O [4-(5,7-difluoro-3-methyl-4-((5-(4-morpholinyl)-3-pyridinyl)-amino)-2-quinolinyl)-1-ethyl-2-piperazinone]
12.9 | Cc1cccc(-c2nc3cc(F)cc(F)c3c(Nc3cc(N4CCOCC4)cnc3N3CCOCC3)c2C)c1C [2-(2,3-dimethylphenyl)-N-(2,5-di-4-morpholinyl-3-pyridinyl)-5,7-difluoro-3-methyl-4-quinolinamine]
4.37 | Cc1c(-c2cc(Cl)ccn2)nc2cc(F)cc(F)c2c1Nc1cc(N2CCOCC2)cnc1N1CCOCC1 [2-(4-chloro-2-pyridinyl)-N-(2,5-di-4-morpholinyl-3-pyridinyl)-5,7-difluoro-3-methyl-4-quinolinamine]
345 | Cc1c(-c2ccccn2)nc2c(F)cc(F)cc2c1Nc1cc(N2CCOCC2)cnc1N1CCOCC1 [N-(2,5-di-4-morpholinyl-3-pyridinyl)-6,8-difluoro-3-methyl-2-(2-pyridinyl)-4-quinolinamine]
13.5 | CCCN1CCN(c2nc3cc(F)cc(F)c3c(Nc3cncc(N4CCOCC4)c3)c2C)CC1 [5,7-difluoro-3-methyl-N-(5-(4-morpholinyl)-3-pyridinyl)-2-(4-propyl-1-piperazinyl)-4-quinolinamine]
26.8 | Cc1ccc(-c2nc3cc(F)cc(F)c3c(Nc3cc(N4CCOCC4)cnc3N3CCOCC3)c2C)c(C)c1 [2-(2,4-dimethylphenyl)-N-(2,5-di-4-morpholinyl-3-pyridinyl)-5,7-difluoro-3-methyl-4-quinolinamine]
11.8 | Cc1c(N2CCN(c3cccnc3)CC2)nc2cc(F)cc(F)c2c1Nc1cncc(N2CCOCC2)c1 [5,7-difluoro-3-methyl-N-(5-(4-morpholinyl)-3-pyridinyl)-2-(4-(3-pyridinyl)-1-piperazinyl)-4-quinolinamine]
23.5 | COc1cc(-c2ncc(N3CCOCC3)cc2Nc2c(C)c(-c3ccccn3)nc3cc(F)cc(F)c23)c(F)cn1 [N-(5,7-difluoro-3-methyl-2-(2-pyridinyl)-4-quinolinyl)-5′-fluoro-2′-methoxy-5-(4-morpholinyl)-2,4′-bipyridin-3-amine]
33.2 | COc1ccc(-c2nc3cc(F)cc(F)c3c(Nc3cc(N4CCOCC4)cnc3N3CCOCC3)c2C)cn1 [N-(2,5-di-4-morpholinyl-3-pyridinyl)-5,7-difluoro-2-(6-methoxy-3-pyridinyl)-3-methyl-4-quinolinamine]
55.7 | Cc1c(N2CCOCC2)nc2cc(F)cc(F)c2c1Nc1cncc(N2CCOCC2)c1 [5,7-difluoro-3-methyl-2-(4-morpholinyl)-N-(5-(4-morpholinyl)-3-pyridinyl)-4-quinolinamine]
517 | Cc1c(-c2ccc(N3CCCCC3)nc2)nc2cc(F)cc(F)c2c1Nc1cncc(N2CCOCC2)c1 [5,7-difluoro-3-methyl-N-(5-(4-morpholinyl)-3-pyridinyl)-2-(6-(1-piperidinyl)-3-pyridinyl)-4-quinolinamine]
582 | Cc1c(-c2ccccn2)nc2ncccc2c1Nc1cc(N2CCOCC2)ccc1N1CCOCC1 [N-(2,5-di-4-morpholinylphenyl)-3-methyl-2-(2-pyridinyl)-1,8-naphthyridin-4-amine]
33.6 | CC(=O)N1CCN(c2nc3cc(F)cc(F)c3c(Nc3cncc(N4CCOCC4)c3)c2C)CC1 [2-(4-acetyl-1-piperazinyl)-5,7-difluoro-3-methyl-N-(5-(4-morpholinyl)-3-pyridinyl)-4-quinolinamine]
45.5 | CCOC(=O)N1CCN(c2nc3cc(F)cc(F)c3c(Nc3cncc(N4CCOCC4)c3)c2C)CC1 [ethyl 4-(5,7-difluoro-3-methyl-4-((5-(4-morpholinyl)-3-pyridinyl)amino)-2-quinolinyl)-1-piperazinecarboxylate]
1.71 | Cc1ncccc1-c1nc2cc(F)cc(F)c2c(Nc2cc(N3CCOCC3)cnc2N2CCOCC2)c1C [N-(2,5-di-4-morpholinyl-3-pyridinyl)-5,7-difluoro-3-methyl-2-(2-methyl-3-pyridinyl)-4-quinolinamine]
78.1 | Cc1c(N2CCNC[C@@H]2C)nc2cc(F)cc(F)c2c1Nc1cncc(N2CCOCC2)c1 [5,7-difluoro-3-methyl-2-((2S)-2-methyl-1-piperazinyl)-N-(5-(4-morpholinyl)-3-pyridinyl)-4-quinolinamine]

Ki [nM] | SMILES
43.5 | Cc1c(-c2ccc(N3CCC(F)(F)CC3)nc2)nc2cc(F)cc(F)c2c1Nc1cc(N2CCOCC2)cnc1N1CCOCC1 [2-(6-(4,4-difluoro-1-piperidinyl)-3-pyridinyl)-N-(2,5-di-4-morpholinyl-3-pyridinyl)-5,7-difluoro-3-methyl-4-quinolinamine]
47.5 | Cc1c(-c2cc([N+](=O)[O-])ccc2F)nc2cc(F)ccc2c1Nc1cncc(N2CCOCC2)c1 [7-fluoro-2-(2-fluoro-5-nitrophenyl)-3-methyl-N-(5-(4-morpholinyl)-3-pyridinyl)-4-quinolinamine]
40.7 | Cc1c(-c2ccnc(N3CCCC3)c2)nc2cc(F)cc(F)c2c1Nc1cc(N2CCOCC2)cnc1N1CCOCC1 [N-(2,5-di-4-morpholinyl-3-pyridinyl)-5,7-difluoro-3-methyl-2-(2-(1-pyrrolidinyl)-4-pyridinyl)-4-quinolinamine]
44 | Cc1c(-c2ccc(N3CCCCC3)nc2)nc2cc(F)cc(F)c2c1Nc1cc(N2CCOCC2)cnc1N1CCOCC1 [N-(2,5-di-4-morpholinyl-3-pyridinyl)-5,7-difluoro-3-methyl-2-(6-(1-piperidinyl)-3-pyridinyl)-4-quinolinamine]
53.4 | Cc1c(N2CCN(S(=O)(=O)C(C)C)CC2)nc2cc(F)cc(F)c2c1Nc1cncc(N2CCOCC2)c1 [5,7-difluoro-3-methyl-2-(4-((1-methylethyl)sulfonyl)-1-piperazinyl)-N-(5-(4-morpholinyl)-3-pyridinyl)-4-quinolinamine]
8.92 | Cc1cncc(-c2nc3cc(F)cc(F)c3c(Nc3cc(N4CCOCC4)cnc3N3CCOCC3)c2C)c1 [N-(2,5-di-4-morpholinyl-3-pyridinyl)-5,7-difluoro-3-methyl-2-(5-methyl-3-pyridinyl)-4-quinolinamine]
68.3 | Cc1c(N2CCOCC2)nc2cc(F)cc(F)c2c1Nc1cncc(C2=CCOCC2)c1 [N-(5-(3,6-dihydro-2H-pyran-4-yl)-3-pyridinyl)-5,7-difluoro-3-methyl-2-(4-morpholinyl)-4-quinolinamine]
11.3 | CSc1cncc(-c2nc3cc(F)cc(F)c3c(Nc3cc(N4CCOCC4)cnc3N3CCOCC3)c2C)c1 [N-(2,5-di-4-morpholinyl-3-pyridinyl)-5,7-difluoro-3-methyl-2-(5-(methylsulfanyl)-3-pyridinyl)-4-quinolinamine]
4.26 | Cc1c(-c2ccccn2)nc2cc(F)cc(F)c2c1Nc1cc(N2CCOCC2)cnc1Cl [N-(2-chloro-5-(4-morpholinyl)-3-pyridinyl)-5,7-difluoro-3-methyl-2-(2-pyridinyl)-4-quinolinamine]
28.4 | Cc1c(-c2ccc(N3CC[C@@H](N(C)C)C3)nc2)nc2cc(F)cc(F)c2c1Nc1cc(N2CCOCC2)cnc1N1CCOCC1 [2-(6-((3R)-3-(dimethylamino)-1-pyrrolidinyl)-3-pyridinyl)-N-(2,5-di-4-morpholinyl-3-pyridinyl)-5,7-difluoro-3-methyl-4-quinolinamine]
21.4 | Cc1c(N2CC(C)(C)CC2=O)nc2cc(F)cc(F)c2c1Nc1cncc(N2CCOCC2)c1 [1-(5,7-difluoro-3-methyl-4-((5-(4-morpholinyl)-3-pyridinyl)-amino)-2-quinolinyl)-4,4-dimethyl-2-pyrrolidinone]
20.6 | Cc1c(N2CCN[C@@H](C)C2)nc2cc(F)cc(F)c2c1Nc1cncc(N2CCOCC2)c1 [5,7-difluoro-3-methyl-2-((3S)-3-methyl-1-piperazinyl)-N-(5-(4-morpholinyl)-3-pyridinyl)-4-quinolinamine]
99.1 | Cc1c(N2CCN(C(=O)c3ccncn3)CC2)nc2cc(F)cc(F)c2c1Nc1cncc(N2CCOCC2)c1 [5,7-difluoro-3-methyl-N-(5-(4-morpholinyl)-3-pyridinyl)-2-(4-(4-pyrimidinylcarbonyl)-1-piperazinyl)-4-quinolinamine]
108 | Cc1c(N2CCN(C(=O)OCC(C)C)CC2)nc2cc(F)cc(F)c2c1Nc1cncc(N2CCOCC2)c1 [2-methylpropyl 4-(5,7-difluoro-3-methyl-4-((5-(4-morpholinyl)-3-pyridinyl)amino)-2-quinolinyl)-1-piperazinecarboxylate]
18.5 | Cc1c(-c2ccc(F)nc2)nc2cc(F)cc(F)c2c1Nc1cc(N2CCOCC2)cnc1N1CCOCC1 [N-(2,5-di-4-morpholinyl-3-pyridinyl)-5,7-difluoro-2-(6-fluoro-3-pyridinyl)-3-methyl-4-quinolinamine]
28.4 | Cc1c(N2CCN(C3CCCCC3)CC2)nc2cc(F)cc(F)c2c1Nc1cncc(N2CCOCC2)c1 [2-(4-cyclohexyl-1-piperazinyl)-5,7-difluoro-3-methyl-N-(5-(4-morpholinyl)-3-pyridinyl)-4-quinolinamine]
16.5 | CNC(=O)N1CCN(c2nc3cc(F)cc(F)c3c(Nc3cncc(N4CCOCC4)c3)c2C)CC1 [4-(5,7-difluoro-3-methyl-4-((5-(4-morpholinyl)-3-pyridinyl)-amino)-2-quinolinyl)-N-methyl-1-piperazinecarboxamide]
87.9 | Cc1c(N2CCN(C(=O)c3ccccc3)CC2)nc2cc(F)cc(F)c2c1Nc1cncc(N2CCOCC2)c1 [5,7-difluoro-3-methyl-N-(5-(4-morpholinyl)-3-pyridinyl)-2-(4-(phenylcarbonyl)-1-piperazinyl)-4-quinolinamine]
